Laboratory results: patent US12466827B2, “1,3,4-oxadiazole derivative compounds as histone deacetylase 6 inhibitor, and the pharmaceutical composition comprising the same” (CHONG KUN DANG PHARMACEUTICAL CORP., priority 2020, dated 2025)

Key:
human recombinant HDAC1 = target: T1, human recombinant HDAC1 (Homo sapiens, UniProt Q13547); test: In vitro HDAC enzyme activity inhibition assay (HDAC1); assay type: biochemical; details: Fluor de Lys-SIRT1 substrate 10 μM, 30° C., 60 minutes, fluorescence
T1 construct: purchased Enzo Life Sciences, Inc. BML-SE456
T1 sequence (Q13547 whole entry): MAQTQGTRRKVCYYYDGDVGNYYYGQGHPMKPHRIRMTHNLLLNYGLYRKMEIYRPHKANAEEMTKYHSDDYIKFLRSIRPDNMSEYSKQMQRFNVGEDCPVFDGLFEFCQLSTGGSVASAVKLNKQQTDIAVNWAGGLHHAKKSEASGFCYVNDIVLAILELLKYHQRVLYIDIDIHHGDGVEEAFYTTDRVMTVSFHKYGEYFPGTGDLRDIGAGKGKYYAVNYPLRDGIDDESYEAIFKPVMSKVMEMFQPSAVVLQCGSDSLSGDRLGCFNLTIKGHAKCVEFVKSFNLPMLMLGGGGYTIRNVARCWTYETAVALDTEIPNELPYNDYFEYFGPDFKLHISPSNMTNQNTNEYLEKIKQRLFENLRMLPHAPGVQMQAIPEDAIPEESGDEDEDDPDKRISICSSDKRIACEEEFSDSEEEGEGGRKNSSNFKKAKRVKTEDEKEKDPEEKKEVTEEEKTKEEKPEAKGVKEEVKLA
Protocol: (§1) In order to confirm the selectivity of the compounds represented by Chemical Formula I of the present invention to HDAC6 through HDAC1 and HDAC6 enzyme activity inhibition experiments, a comparison experiment was performed using the material that has already been developed as a control group.
(§2) HDAC enzyme activity was measured using the HDAC Fluorimetric Drug Discovery Kit (Enzo Life Sciences, Inc., BML-AK511, 516). For the HDAC1 enzyme activity test, human recombinant HDAC1 (BML-SE456) was used as an enzyme source and Fluor de Lys-SIRT1 (BNL-KI177) was used as a substrate. After dispensing 5-fold diluted compounds into a 96-well plate, 0.3 μg of enzyme and 10 μM substrate were added to each well of the plate and allowed to react at 30° C. for 60 minutes. Next, Fluor de Lys Developer II (BML-KI176) was added and reacted for 30 minutes to complete the reaction, and then the fluorescence values (Ex 360, Em 460) were measured using a multi-plate reader (Flexstation 3, Molecular Device). The HDAC6 enzymes were tested using human recombinant HDAC6 (382180) from Calbiochem Inc., according to the same protocol as the HDAC1 enzyme activity test method. With respect to the final result values, respective IC50 values were calculated using GraphPad Prism 4.0 program, and results thereof were summarized in Table 4 below.

human recombinant HDAC6 = target: T2, human recombinant HDAC6 (Homo sapiens, UniProt Q9UBN7); test: In vitro HDAC enzyme activity inhibition assay (HDAC6); assay type: biochemical; details: for HDAC6 selectivity (fold): HDAC6 over HDAC1; for IC50: same protocol as the HDAC1 test, human recombinant HDAC6 (Calbiochem)
T2 construct: purchased Calbiochem Inc. 382180
T2 sequence (Q9UBN7 1-1215): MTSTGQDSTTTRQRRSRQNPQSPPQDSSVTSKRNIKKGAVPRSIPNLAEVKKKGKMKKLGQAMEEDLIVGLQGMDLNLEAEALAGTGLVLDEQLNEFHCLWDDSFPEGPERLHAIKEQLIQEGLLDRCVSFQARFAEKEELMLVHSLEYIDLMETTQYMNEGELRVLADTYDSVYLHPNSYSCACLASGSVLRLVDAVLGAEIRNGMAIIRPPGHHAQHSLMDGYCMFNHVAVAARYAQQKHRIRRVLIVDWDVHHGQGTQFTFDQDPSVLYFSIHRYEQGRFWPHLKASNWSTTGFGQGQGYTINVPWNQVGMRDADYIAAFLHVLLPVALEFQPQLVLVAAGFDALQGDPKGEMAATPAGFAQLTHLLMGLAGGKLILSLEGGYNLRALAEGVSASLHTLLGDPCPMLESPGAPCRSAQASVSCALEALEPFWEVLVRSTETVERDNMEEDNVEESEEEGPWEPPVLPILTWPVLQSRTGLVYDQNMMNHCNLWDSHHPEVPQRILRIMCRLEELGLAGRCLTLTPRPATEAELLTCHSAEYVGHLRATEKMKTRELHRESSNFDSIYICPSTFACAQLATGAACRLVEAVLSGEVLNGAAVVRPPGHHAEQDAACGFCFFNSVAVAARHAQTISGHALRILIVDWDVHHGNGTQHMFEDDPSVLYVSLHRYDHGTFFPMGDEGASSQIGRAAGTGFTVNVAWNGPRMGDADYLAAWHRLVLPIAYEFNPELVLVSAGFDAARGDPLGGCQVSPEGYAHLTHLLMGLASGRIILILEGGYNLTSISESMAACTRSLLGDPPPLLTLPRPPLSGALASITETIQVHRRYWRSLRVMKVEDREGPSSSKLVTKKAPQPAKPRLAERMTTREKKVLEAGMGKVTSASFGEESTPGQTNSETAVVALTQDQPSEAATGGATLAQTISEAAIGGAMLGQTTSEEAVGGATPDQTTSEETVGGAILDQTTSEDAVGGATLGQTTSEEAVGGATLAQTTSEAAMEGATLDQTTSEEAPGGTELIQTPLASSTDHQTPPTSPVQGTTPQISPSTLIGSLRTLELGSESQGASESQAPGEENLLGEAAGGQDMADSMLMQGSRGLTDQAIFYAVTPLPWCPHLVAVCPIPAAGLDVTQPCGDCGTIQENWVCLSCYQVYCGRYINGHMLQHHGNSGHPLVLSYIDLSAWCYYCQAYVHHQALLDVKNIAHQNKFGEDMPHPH
Protocol: as §1, §2

SMILES | IC50 (human recombinant HDAC1) [nM] | HDAC6 selectivity (fold) (human recombinant HDAC6) | IC50 (human recombinant HDAC6) [nM]
O=C(N1CCN(S(=O)(=O)N(Cc2cn3ccc(-c4nnc(C(F)F)o4)cc3n2)c2ccccc2)CC1)C(F)(F)F [Compound 4270, N-((7-(5-(difluoromethyl)-1,3,4-oxadiazol-2-yl)imidazo[1,2-a]pyridin-2-yl)methyl)-N-phenyl-4-(2,2,2-trifluoroacetyl)piperazine-1-sulfonamide] | > 50000 | 327 | 153
O=C(C1CCC1)N1CCN(S(=O)(=O)N(Cc2cn3ccc(-c4nnc(C(F)F)o4)cc3n2)c2ccccc2)CC1 [Compound 4268, 4-(cyclobutanecarbonyl)-N-((7-(5-(difluoromethyl)-1,3,4-oxadiazol-2-yl)imidazo[1,2-a]pyridine-2-yl)methyl)-N-phenylpiperazine-1-sulfonamide] | > 50000 | 389 | 129
CN1CCN(S(=O)(=O)N(Cc2cn3ccc(-c4nnc(C(F)F)o4)cc3n2)c2cccc(F)c2)CC1 [Compound 4297, N-((7-(5-(difluoromethyl)-1,3,4-oxadiazol-2-yl)imidazo[1,2-a]pyridin-2-yl)methyl)-N-(3-fluorophenyl)-4-methylpiperazine-1-sulfonamide] | > 50000 | 561 | 89.2
CS(=O)(=O)N1CCN(S(=O)(=O)N(Cc2cn3ccc(-c4nnc(C(F)F)o4)cc3n2)c2cccc(F)c2)CC1 [Compound 4312, N-((7-(5-(difluoromethyl)-1,3,4-oxadiazol-2-yl)imidazo[1,2-a]pyridin-2-yl)methyl)-N-(3-fluorophenyl)-4-(methylsulfonyl)piperazine-1-sulfonamide] | > 50000 | 530 | 94.3
O=S(=O)(C1CCN(C2CC3(CCC3)C2)CC1)N(Cc1cn2ccc(-c3nnc(C(F)F)o3)cc2n1)c1cccc(F)c1 [Compound 4616, N-((7-(5-(difluoromethyl)-1,3,4-oxadiazol-2-yl)imidazo[1,2-a]pyridin-2-yl)methyl)-N-(3-fluorophenyl)-1-(spiro[3.3]heptan-2-yl)piperidine-4-sulfonamide] | > 50000 | 243 | 205
CN(C)C(=O)N1CCN(S(=O)(=O)N(Cc2cn3ccc(-c4nnc(C(F)F)o4)cc3n2)c2ccccc2)CC1 [Compound 4273, 4—(N-((7-(5-(difluoromethyl)-1,3,4-oxadiazol-2-yl)imidazo[1,2-a]pyridin-2-yl)methyl)-N-phenylsulfamoyl)-N, N-dimethylpiperazine-1-carboxamide] | > 50000 | 413 | 121
CN1CCN(S(=O)(=O)N(Cc2cn3ccc(-c4nnc(C(F)F)o4)cc3n2)c2ccccc2)CC1 [Compound 4256, N-((7-(5-(difluoromethyl)-1,3,4-oxadiazol-2-yl)imidazo[1,2-a]pyridin-2-yl)methyl)-4-methyl-N-phenylpiperazine-1-sulfonamide] | > 50000 | 630 | 79.4
CC(=O)N1CCN(S(=O)(=O)N(Cc2cn3ccc(-c4nnc(C(F)F)o4)cc3n2)c2ccccc2)CC1 [Compound 4265, 4-acetyl-N-((7-(5-(difluoromethyl)-1,3,4-oxadiazol-2-yl)imidazo[1,2-a]pyridin-2-yl)methyl)-N-phenylpiperazine-1-sulfonamide] | > 50000 | 585 | 85.5
O=S(=O)(N1CCN(C2CCOCC2)CC1)N(Cc1cn2ccc(-c3nnc(C(F)F)o3)cc2n1)c1ccccc1 [Compound 4263, N-((7-(5-(difluoromethyl)-1,3,4-oxadiazol-2-yl)imidazo[1,2-a]pyridin-2-yl)methyl)-N-phenyl-1-(tetrahydro-2H-pyran-4-yl)piperazine-1-sulfonamide] | > 50000 | 397 | 126
CCN1CCC(S(=O)(=O)N(Cc2cn3ccc(-c4nnc(C(F)F)o4)cc3n2)c2cccc(F)c2)CC1 [Compound 4237, N-((7-(5-(difluoromethyl)-1,3,4-oxadiazol-2-yl)imidazo[1,2-a]pyridin-2-yl)methyl)-1-ethyl-N-(3-fluorophenyl)-piperidine-4-sulfonamide] | > 50000 | 821 | 60.9
CCC(=O)N1CCC(S(=O)(=O)N(Cc2cn3ccc(-c4nnc(C(F)F)o4)cc3n2)c2ccccc2)CC1 [Compound 4222, N-((7-(5-(difluoromethyl)-1,3,4-oxadiazol-2-yl)imidazo[1,2-a]pyridin-2-yl)methyl)-N-phenyl-1-propionylpiperidine-4-sulfonamide] | > 50000 | 229 | 218

Further lines, results first:

IC50 (human recombinant HDAC1) [nM] | HDAC6 selectivity (fold) (human recombinant HDAC6) | IC50 (human recombinant HDAC6) [nM] | SMILES
> 50000 | 462 | 108 | CN(C)C(=O)N1CCN(S(=O)(=O)N(Cc2cn3ccc(-c4nnc(C(F)F)o4)cc3n2)c2cccc(F)c2)CC1 [Compound 4314, 4—(N-((7-(5-(difluoromethyl)-1,3,4-oxadiazol-2-yl)imidazo[1,2-a]pyridin-2-yl)methyl)-N-(3-fluorophenyl)sulfamoyl)-N, N-dimethylpiperazine-1-carboxamide]
> 50000 | 299 | 167 | O=S(=O)(N1CCN(C2CCCCC2)CC1)N(Cc1cn2ccc(-c3nnc(C(F)F)o3)cc2n1)c1cccc(F)c1 [Compound 4303, 4-cyclohexyl-N-((7-(5-(difluoromethyl)-1,3,4-oxadiazol-2-yl)imidazo[1,2-a]pyridin-2-yl)methyl)-N-(3-fluorophenyl)piperazine-1-sulfonamide]
> 50000 | 660 | 75.8 | CCC(=O)N1CCC(S(=O)(=O)N(Cc2cn3ccc(-c4nnc(C(F)F)o4)cc3n2)c2cccc(F)c2)CC1 [Compound 4246, N-((7-(5-(difluoromethyl)-1,3,4-oxadiazol-2-yl)imidazo[1,2-a]pyridin-2-yl)methyl)-N-(3-fluorophenyl)-1-propionylpiperidine-4-sulfonamide]
> 50000 | 275 | 182 | CC(C)N1CCC(S(=O)(=O)N(Cc2cn3ccc(-c4nnc(C(F)F)o4)cc3n2)c2ccccc2)CC1 [Compound 4215, N-((7-(5-(difluoromethyl)-1,3,4-oxadiazol-2-yl)imidazo[1,2-a]pyridin-2-yl)methyl)-1-isopropyl-N-phenylpiperidine-4-sulfonamide]
> 50000 | 1055 | 47.4 | CC(=O)N1CCC(S(=O)(=O)N(Cc2cn3ccc(-c4nnc(C(F)F)o4)cc3n2)c2cccc(F)c2)CC1 [Compound 4245, 1-acetyl-N-((7-(5-(difluoromethyl)-1,3,4-oxadiazol-2-yl)imidazo[1,2-a]pyridin-2-yl)methyl)-N-(3-fluorophenyl)piperidine-4-sulfonamide]
> 50000 | 351 | 142 | O=S(=O)(N1CCN(c2ncccn2)CC1)N(Cc1cn2ccc(-c3nnc(C(F)F)o3)cc2n1)c1ccccc1 [Compound 4275, N-((7-(5-(difluoromethyl)-1,3,4-oxadiazol-2-yl)imidazo[1,2-a]pyridin-2-yl)methyl)-N-phenyl-4-(pyrimidin-2-yl)piperazine-1-sulfonamide]
